System: heat hypersensitivity in mice
Assay: Heat test, head withdrawal latency (HWL)
Format: in vivo, mouse
Settings: intra-TG 1 nmol or 5 nmol
Protocol: For experiments that several time points are needed to be checked in 24 h, von Frey test was used, as orofacial stimulation test can be checked only once a day, [32]. For the von Frey test, the mice were placed in metal mesh boxes and allowed 30 min for habituation before examination. Mechanical hypersensitivity was assessed as described in previous studies, [33]. In brief, the threshold was assessed with a set of von Frey hairs (0.02-2.56 g, Stoelting) applied to the whisker pad in an ascending series of trials, with three separate von Frey stimulations applied per series. The threshold was determined when mice moved their heads away briskly and strongly from at least one of the three stimuli. Dixon's up-down method was used to determine the 50% probability of escape threshold. For thermal test, a heat stimulus was applied to the maxillary whisker pad skin by radiant heat (IITC Life Science). Heat sensitivity was expressed as head-withdrawal latency (HWL). The radiant heat intensity was adjusted so that basal HWL is between 10-15 s, with a cut-off of 18 s to prevent tissue damage. Chronic inflammatory pain was induced by subcutaneous injection of 20 μL of complete Freund's adjuvant (CFA) into the left side of the buccal pad. […]

Substance: Neuromedin B [Nmb]
- head withdrawal latency effect, duration: maintained at 3 h
- head withdrawal latency (HWL) (at 1 h): significantly decreased the head withdrawal latency

From publication PMC8490515, “Neuromedin B receptor stimulation of Cav3.2 T-type Ca^2+ channels in primary sensory neurons mediates peripheral pain hypersensitivity” (Theranostics, 2021)
